Test results as given in publication PMC7673538 (PLoS Biology, 2020).

Tested on: EV-A71
Assay: microbe, parasite or virus in culture
Format: cell-based, enterovirus A71
Details: Enterovirus A, EVA71, HeLa R19, read-out: EC50 EV-A71

SMILES	EC50
O=C(c1ccco1)N(Cc1ccccc1)c1ccc(C(F)(F)F)cc1 [Compound 19i, N-benzyl-N-(4-(trifluoromethyl)phenyl)furan-2-carboxamide]	> 30 µM

Tested on: CV-B3
Assay: microbe, parasite or virus in culture
Format: cell-based, coxsackievirus B3
Details: not given

SMILES	effect of the substitution on antiviral activity against CV-B3 (in words)
O=C(c1ccco1)N(Cc1ccccc1)c1ccc(C(F)(F)F)cc1 [Compound 19i, N-benzyl-N-(4-(trifluoromethyl)phenyl)furan-2-carboxamide]	had little effect

Same assay, conditions: Enterovirus B, CVB3, HeLa

SMILES	EC50
O=C(c1ccco1)N(Cc1ccccc1)c1ccc(C(F)(F)F)cc1 [Compound 19i, N-benzyl-N-(4-(trifluoromethyl)phenyl)furan-2-carboxamide]	2.75 ± 0.25 µM

Same assay, conditions: Enterovirus B, CVB3, HeLa R19, read-out: CV-B3 EC50 Average

SMILES	EC50
O=C(c1ccco1)N(Cc1ccccc1)c1ccc(C(F)(F)F)cc1 [Compound 19i, N-benzyl-N-(4-(trifluoromethyl)phenyl)furan-2-carboxamide]	2.45 µM

Same assay, conditions: Enterovirus B, CVB3, HeLa R19, read-out: CV-B3 Exp 1 EC50

SMILES	EC50
O=C(c1ccco1)N(Cc1ccccc1)c1ccc(C(F)(F)F)cc1 [Compound 19i, N-benzyl-N-(4-(trifluoromethyl)phenyl)furan-2-carboxamide]	2.35 µM

Same assay, conditions: Enterovirus B, CVB3, HeLa R19, read-out: CV-B3 Exp2 EC50

SMILES	EC50
O=C(c1ccco1)N(Cc1ccccc1)c1ccc(C(F)(F)F)cc1 [Compound 19i, N-benzyl-N-(4-(trifluoromethyl)phenyl)furan-2-carboxamide]	2.55 µM

Same assay, conditions: Enterovirus B, CVB3, HeLa R19, read-out: EC50 HelaR19 Average

SMILES	EC50
O=C(c1ccco1)N(Cc1ccccc1)c1ccc(C(F)(F)F)cc1 [Compound 19i, N-benzyl-N-(4-(trifluoromethyl)phenyl)furan-2-carboxamide]	2.78 µM

Same assay, conditions: Enterovirus B, CVB3, HeLa R19, read-out: Exp 1 EC50 HelaR19

SMILES	EC50
O=C(c1ccco1)N(Cc1ccccc1)c1ccc(C(F)(F)F)cc1 [Compound 19i, N-benzyl-N-(4-(trifluoromethyl)phenyl)furan-2-carboxamide]	2.52 µM

Same assay, conditions: Enterovirus B, CVB3, HeLa R19, read-out: Exp 2 EC50 HelaR19

SMILES	EC50
O=C(c1ccco1)N(Cc1ccccc1)c1ccc(C(F)(F)F)cc1 [Compound 19i, N-benzyl-N-(4-(trifluoromethyl)phenyl)furan-2-carboxamide]	3.03 µM

Tested on: PV-1
Assay: microbe, parasite or virus in culture
Format: cell-based, poliovirus 1
Details: Enterovirus C, HeLa R19, read-out: EC50 PV-1

SMILES	EC50
O=C(c1ccco1)N(Cc1ccccc1)c1ccc(C(F)(F)F)cc1 [Compound 19i, N-benzyl-N-(4-(trifluoromethyl)phenyl)furan-2-carboxamide]	> 30 µM

Tested on: CV-A24
Assay: microbe, parasite or virus in culture
Format: cell-based, coxsackievirus A24
Details: Enterovirus C, CVA24, HeLa R19, read-out: EC50 CV-A24

SMILES	EC50
O=C(c1ccco1)N(Cc1ccccc1)c1ccc(C(F)(F)F)cc1 [Compound 19i, N-benzyl-N-(4-(trifluoromethyl)phenyl)furan-2-carboxamide]	> 30 µM

Tested on: EV-D68
Assay: microbe, parasite or virus in culture
Format: cell-based, enterovirus D68
Details: Enterovirus D, EVD68, HeLa R19, read-out: EC50 EV-D68

SMILES	EC50
O=C(c1ccco1)N(Cc1ccccc1)c1ccc(C(F)(F)F)cc1 [Compound 19i, N-benzyl-N-(4-(trifluoromethyl)phenyl)furan-2-carboxamide]	3.35 ± 0.19 µM

Same assay, conditions: Enterovirus D, EVD68, HeLa R19, read-out: EC50 Exp1

SMILES	EC50
O=C(c1ccco1)N(Cc1ccccc1)c1ccc(C(F)(F)F)cc1 [Compound 19i, N-benzyl-N-(4-(trifluoromethyl)phenyl)furan-2-carboxamide]	3.16 µM

Same assay, conditions: Enterovirus D, EVD68, HeLa R19, read-out: EC50 Exp2

SMILES	EC50
O=C(c1ccco1)N(Cc1ccccc1)c1ccc(C(F)(F)F)cc1 [Compound 19i, N-benzyl-N-(4-(trifluoromethyl)phenyl)furan-2-carboxamide]	3.54 µM

Tested on: HRV-A2
Assay: microbe, parasite or virus in culture
Format: cell-based, human rhinovirus
Details: Human rhinovirus sp., HRVA2, HeLa R19, read-out: EC50 HRV-A2

SMILES	EC50
O=C(c1ccco1)N(Cc1ccccc1)c1ccc(C(F)(F)F)cc1 [Compound 19i, N-benzyl-N-(4-(trifluoromethyl)phenyl)furan-2-carboxamide]	> 30 µM

Tested on: HRV-B14
Assay: microbe, parasite or virus in culture
Format: cell-based, human rhinovirus
Details: Human rhinovirus sp., HRVB14, HeLa R19, read-out: EC50 HRV-B14

SMILES	EC50
O=C(c1ccco1)N(Cc1ccccc1)c1ccc(C(F)(F)F)cc1 [Compound 19i, N-benzyl-N-(4-(trifluoromethyl)phenyl)furan-2-carboxamide]	> 30 µM

Tested on: CV-B3
Assay: microbe, parasite or virus in culture
Format: cell-based, coxsackievirus B3
Details: Enterovirus B, CVB3, HAP1

SMILES	EC50
O=C(c1ccco1)N(Cc1ccccc1)c1ccc(C(F)(F)F)cc1 [Compound 19i, N-benzyl-N-(4-(trifluoromethyl)phenyl)furan-2-carboxamide]	1.75 ± 0.29 µM

Same assay, conditions: Enterovirus B, CVB3, HAP1, read-out: EC50 Hap1 Average

SMILES	EC50
O=C(c1ccco1)N(Cc1ccccc1)c1ccc(C(F)(F)F)cc1 [Compound 19i, N-benzyl-N-(4-(trifluoromethyl)phenyl)furan-2-carboxamide]	1.74 µM

Same assay, conditions: Enterovirus B, CVB3, HAP1, read-out: Exp 2 EC50 Hap1

SMILES	EC50
O=C(c1ccco1)N(Cc1ccccc1)c1ccc(C(F)(F)F)cc1 [Compound 19i, N-benzyl-N-(4-(trifluoromethyl)phenyl)furan-2-carboxamide]	2.03 µM

Tested on: CV-B3
Assay: microbe, parasite or virus in culture
Format: cell-based, coxsackievirus B3
Details: Enterovirus B, CVB3, BGM, read-out: EC50 BGM Average

SMILES	EC50
O=C(c1ccco1)N(Cc1ccccc1)c1ccc(C(F)(F)F)cc1 [Compound 19i, N-benzyl-N-(4-(trifluoromethyl)phenyl)furan-2-carboxamide]	1.71 µM

Same assay, conditions: Enterovirus B, CVB3, BGM, read-out: Exp 1 EC50 BGM

SMILES	EC50
O=C(c1ccco1)N(Cc1ccccc1)c1ccc(C(F)(F)F)cc1 [Compound 19i, N-benzyl-N-(4-(trifluoromethyl)phenyl)furan-2-carboxamide]	1.42 µM

Same assay, conditions: Enterovirus B, CVB3, BGM, read-out: Exp 2 EC50 BGM

SMILES	EC50
O=C(c1ccco1)N(Cc1ccccc1)c1ccc(C(F)(F)F)cc1 [Compound 19i, N-benzyl-N-(4-(trifluoromethyl)phenyl)furan-2-carboxamide]	1.99 µM

Tested on: HeLa R19 cells
Assay: not given
Details: human, monkey

SMILES	cytotoxicity (in words)
O=C(c1ccco1)N(Cc1ccccc1)c1ccc(C(F)(F)F)cc1 [Compound 19i, N-benzyl-N-(4-(trifluoromethyl)phenyl)furan-2-carboxamide]	cytotoxicity in a similar range as the parental compound 1

Tested on: not listed separately
Assay: in vitro
Details: human, CC50 Average

SMILES	CC50
O=C(c1ccco1)N(Cc1ccccc1)c1ccc(C(F)(F)F)cc1 [Compound 19i, N-benzyl-N-(4-(trifluoromethyl)phenyl)furan-2-carboxamide]	> 30 µM

Same assay, conditions: human, CC50 HelaR19 Average

SMILES	CC50
O=C(c1ccco1)N(Cc1ccccc1)c1ccc(C(F)(F)F)cc1 [Compound 19i, N-benzyl-N-(4-(trifluoromethyl)phenyl)furan-2-carboxamide]	68.5 µM

Same assay, conditions: human, Exp 1 CC50

SMILES	CC50
O=C(c1ccco1)N(Cc1ccccc1)c1ccc(C(F)(F)F)cc1 [Compound 19i, N-benzyl-N-(4-(trifluoromethyl)phenyl)furan-2-carboxamide]	> 30 µM

Same assay, conditions: human, Exp 1 CC50 HelaR19

SMILES	CC50
O=C(c1ccco1)N(Cc1ccccc1)c1ccc(C(F)(F)F)cc1 [Compound 19i, N-benzyl-N-(4-(trifluoromethyl)phenyl)furan-2-carboxamide]	68 µM

Same assay, conditions: human, Exp2 CC50

SMILES	CC50
O=C(c1ccco1)N(Cc1ccccc1)c1ccc(C(F)(F)F)cc1 [Compound 19i, N-benzyl-N-(4-(trifluoromethyl)phenyl)furan-2-carboxamide]	> 30 µM

Same assay, conditions: human, Exp 2 CC50 HelaR19

SMILES	CC50
O=C(c1ccco1)N(Cc1ccccc1)c1ccc(C(F)(F)F)cc1 [Compound 19i, N-benzyl-N-(4-(trifluoromethyl)phenyl)furan-2-carboxamide]	69 µM

Tested on: not listed separately
Assay: in vitro
Details: human, CC50

SMILES	CC50
O=C(c1ccco1)N(Cc1ccccc1)c1ccc(C(F)(F)F)cc1 [Compound 19i, N-benzyl-N-(4-(trifluoromethyl)phenyl)furan-2-carboxamide]	> 100 µM

Same assay, conditions: human, CC50 Hap1 Average

SMILES	CC50
O=C(c1ccco1)N(Cc1ccccc1)c1ccc(C(F)(F)F)cc1 [Compound 19i, N-benzyl-N-(4-(trifluoromethyl)phenyl)furan-2-carboxamide]	> 100 µM

Same assay, conditions: human, Exp 1 CC50 Hap1

SMILES	CC50
O=C(c1ccco1)N(Cc1ccccc1)c1ccc(C(F)(F)F)cc1 [Compound 19i, N-benzyl-N-(4-(trifluoromethyl)phenyl)furan-2-carboxamide]	> 100 µM

Same assay, conditions: human, Exp 2 CC50 Hap1

SMILES	CC50
O=C(c1ccco1)N(Cc1ccccc1)c1ccc(C(F)(F)F)cc1 [Compound 19i, N-benzyl-N-(4-(trifluoromethyl)phenyl)furan-2-carboxamide]	> 100 µM

Tested on: not listed separately
Assay: in vitro
Details: monkey, CC50

SMILES	CC50
O=C(c1ccco1)N(Cc1ccccc1)c1ccc(C(F)(F)F)cc1 [Compound 19i, N-benzyl-N-(4-(trifluoromethyl)phenyl)furan-2-carboxamide]	55.4 ± 0.05 µM

Same assay, conditions: monkey, CC50 BGM Average

SMILES	CC50
O=C(c1ccco1)N(Cc1ccccc1)c1ccc(C(F)(F)F)cc1 [Compound 19i, N-benzyl-N-(4-(trifluoromethyl)phenyl)furan-2-carboxamide]	55.4 µM

Same assay, conditions: monkey, Exp 1 CC50 BGM

SMILES	CC50
O=C(c1ccco1)N(Cc1ccccc1)c1ccc(C(F)(F)F)cc1 [Compound 19i, N-benzyl-N-(4-(trifluoromethyl)phenyl)furan-2-carboxamide]	55.3 µM

Same assay, conditions: monkey, Exp 2 CC50 BGM

SMILES	CC50
O=C(c1ccco1)N(Cc1ccccc1)c1ccc(C(F)(F)F)cc1 [Compound 19i, N-benzyl-N-(4-(trifluoromethyl)phenyl)furan-2-carboxamide]	55.5 µM
